“Also recorded” adds a separate entry of the source.
Test system: lipogenic gene expression
Assay: Real-time RT-PCR gene expression in liver and white adipose tissue of 16 d treated DIO mice
Format: in vivo, mouse
Protocol: Real-time RT-PCR. Hypothalamus, liver, and WAT of DIO and lean mice were harvested and immediately frozen in liquid nitrogen. Total RNA was isolated and real-time quantitative RT-PCR was performed as previously described (13). Gene-specific primer pairs were designed using Primer3 software (http://www-genome.wi.mit.edu/cgi-bin/primer/primer3_www.cgi/). The sequences of the primer pairs are listed in Supplemental Data Table 1.
To further explore the mechanism responsible for the reduction in adipose tissue mass, we used real-time RT-PCR to measure the expression of the following key lipogenic genes in white adipose tissue from vehicle control, pair-fed, and FSG67 treated DIO mice from the second indirect calorimetry trial (see FIG. 12c): fatty acid synthase (FAS), responsible for the de novo reductive synthesis of fatty acid 13, acetyl-CoA carboxylase 1 (ACC1), the cytoplasmic isoform of ACC expressed in lipogenic organs that synthesizes malonyl-CoA used as a substrate of FAS for fatty acid synthesis 14, peroxisome proliferator-activated receptor gamma (PPARγ) a key transcription factor for adipogenesis 15, lipid partitioning 16, and postprandial lipid storage 17, and GPAT. […] (FIG. 19). Thus, pharmacological GPAT inhibition not only increases fatty acid oxidation and reduces food intake, but up-regulates UCP2 in liver and white adipose tissue while down-regulating lipogenic gene expression in white adipose tissue, all of which should favor a selective decrease in adiposity. […]

[1] = vs control and pair-fed, listed as FSG67

CCCCCCCCCS(=O)(=O)Nc1ccccc1C(=O)O [Compound 15g, 2-(Nonylsulfonamido)benzoic acid]
GPAT expression in liver (listed as FSG67): unaffected
L-CPT-1 expression in liver and WAT (listed as FSG67): unaffected; also recorded: not affected
UCP2 expression in liver (vs control): increased
ACC1 expression in white adipose tissue [1]: substantial down-regulation; also recorded: down regulated
FAS expression in white adipose tissue [1]: substantial down-regulation; also recorded: down regulated
GPAT expression in white adipose tissue [1]: substantial down-regulation; also recorded: down regulated
PPARγ expression in white adipose tissue [1]: substantial down-regulation; also recorded: down regulated
UCP2 expression in WAT (vs pair-fed): increased
ACC1 expression in liver (vs pair-fed, listed as FSG67): significant reduction; also recorded: reduced
FAS expression in liver (vs vehicle and pair-fed, listed as FSG67): significant reduction; also recorded: reduced
